Patent US20100077512A1 (priority 2006, published 2010)

Experiments:
[1] = tested on: tobacco budworm (Heliothis virescens); conditions: 2500 ppm, eggs sprayed, 6 days
Protocol: 15 to 25 eggs were placed into microtiterplates filled with diet. The eggs were sprayed with 10 μl of the test solution, the plates were sealed with pierced foils and kept at 27-29° C. and 75-85% humidity under fluorescent light for 6 days. Mortality was assessed on the basis of the agility and of comparative feeding of the hatched larvae. Tests were replicated 2 times.

[2] = tested on: Mediterranean fruitfly (Ceratitis capitata); conditions: 2500 ppm, eggs sprayed, 6 days

## O=S(=O)(NCc1ccnnc1)c1cc(Br)cs1
other
  melting point: 120 to 122 °C

## N#Cc1ccc(-c2ccc(S(=O)(=O)NCc3ccnnc3)cc2)cc1 [Example 11]
[1]
  mortality: at least 75%

## O=S(=O)(NCc1ccnnc1)c1ccc(-c2ccc(Cl)cc2)nc1 [Example 60]
[2]
  mortality: at least 75%
